In paper PMC3561128, “Preclinical evaluation of carbon-11 and fluorine-18 sulfonamide derivatives for in vivo radiolabeling of erythrocytes” (EJNMMI Research, 2013):
pKi: −log10 of the molar value. Where “and” joins values, the source holds several entries; their conditions need not be identical. Identical values can stand only once.

Key:
[1] = molecular target: hCA I (Homo sapiens, UniProt P00915); assay: CA-catalyzed CO2 hydration, stopped-flow inhibition assay; format: biochemical; settings: human (cloned) isozyme; CO2 hydration reaction at 20°C; n = 3
Procedure: (§1) Phenol red (0.2 mM) was used as indicator, working at the absorbance maximum of 557 nm, with 10 mM Hepes as buffer (pH 7.5) and 0.1 M Na2SO4 (for maintaining constant ionic strength) at 25°C following the CA-catalyzed CO2 hydration reaction for a period of 10 to 100 s (the uncatalyzed reaction needs around 60 to 100 s under assay conditions, whereas the catalyzed reactions take around 6 to 10 s). The CO2 concentrations ranged from 1.7 to 17 mM for the determination of kinetic parameters. Each compound was tested in the concentration range between 0.01 nM to 100 μM. The uncatalyzed rates were determined in the same manner and subtracted from the total observed rates. Stock solutions of the compounds (0.1 mM) were prepared in distilled water with 10% to 20% (v/v) DMSO (which is non-inhibitory at these concentrations), and dilutions up to 0.01 nM were made with distilled water. Inhibitor and enzyme solutions were preincubated together for 15 min at room temperature prior to the assay, in order to allow the formation of enzyme-inhibitor complex. The inhibition constants were obtained by nonlinear least square methods using PRISM 3 (GraphPad Software, La Jolla, CA, USA), and they represent the mean from at least three different determinations.

[2] = molecular target: hCA II (Homo sapiens, UniProt P00918); assay: as above; format: biochemical; settings: human (cloned) isozyme; CO2 hydration reaction at 20°C; n = 3
Procedure: as §1

[3] = Log D (1-octanol/phosphate buffer pH 7.4), shake flask method; format: physicochemical
Procedure: Determination of the distribution coefficient (log D1-octanol/phosphate buffer pH 7.4), was carried out by a shake flask method. An aliquot (25 μL) of the tracer agents ^18F]-(3), ^11C]-(4), ^18F]-(5), or ^11C]-(6) (185 to 555 kBq/mL) was added to a polypropylene tube (5 mL; Sarstedt, Nümbrecht, Germany) containing 2 mL of 0.025 M sodium phosphate buffer pH 7.4 and 2 mL of 1-octanol. The tube was vortexed for 2 min at room temperature followed by centrifugation at 3,000 rpm for 10 min (Eppendorf centrifuge 5810, Eppendorf, Westbury, NY, USA). Aliquots of 50 μL of the 1-octanol phase and 500 μL of the phosphate buffer phase were pipetted into separate tared Eppendorf tubes with adequate care to avoid cross contamination between the two phases. The samples were weighed, and radioactivity was quantified using an automated gamma counter. The experiments were carried out sixfold.

[4] = Biodistribution studies in NMRI mice; format: in vivo; settings: i.v.; for Percentage of ID, blood: blood mass assumed 7% of body mass
Procedure: The biodistribution studies were performed in wild-type NMRI mice with body weights ranging from 30 to 40 g. Mice were intravenously injected with 0.1 MBq of ^18F]-(3) or ^18F]-(5) and 5.5 MBq of ^11C]-(4) or ^11C]-(6) under anesthesia (2% isoflurane in O2 at a flow rate of 1 L/min). The animals were killed by decapitation at 2 min or 60 min p.i. (n = 4/time point for ^18F]-(3), ^11C]-(4), and ^11C]-(6); n = 6 for ^18F]-(5)). Blood was collected, and all major organs were dissected and collected in tarred tubes and were weighed. The radioactivity in each organ was counted using an automated gamma counter, corrected for background radioactivity and expressed as follows: percentage of the injected dose (% ID) or as standardized uptake value (SUV) (SUV = (Counts in tissue per gram of tissue) / (Injected counts per total body mass (g)). For the calculation of total radioactivity in the blood, blood mass was assumed to be 7% of the body mass.

[5] = Dynamic micro-PET scan in rats; format: in vivo, Wistar rat
Procedure: PET images were acquired on a FOCUS 220 tomograph (Siemens/Concorde Microsystems, Knoxville, TN, USA). During all scan sessions, rats were anesthetized (2.5% isoflurane in O2 at a flow rate of 1 L/min) and scanned in prone position. [^18F]-(5) (37 MBq) was administered via the tail vein, and a 1-h dynamic scan was acquired. The images were acquired in list mode and binned in sinograms using a 21-dynamic frame protocol (4 × 15, 4 × 60, 5 × 180, 8 × 300 s). Reconstruction was performed with the Focus 220 software (using Fourier rebinning, followed by two-dimensional (2D) OSEM algorithm), and data were analyzed using PMOD (version 2.65; PMOD, Zurich, Switzerland). The radioactivity concentration in the heart region was expressed as SUVs as a function of time after injection of the radiotracer.

hCA I, sequence (P00915 whole entry): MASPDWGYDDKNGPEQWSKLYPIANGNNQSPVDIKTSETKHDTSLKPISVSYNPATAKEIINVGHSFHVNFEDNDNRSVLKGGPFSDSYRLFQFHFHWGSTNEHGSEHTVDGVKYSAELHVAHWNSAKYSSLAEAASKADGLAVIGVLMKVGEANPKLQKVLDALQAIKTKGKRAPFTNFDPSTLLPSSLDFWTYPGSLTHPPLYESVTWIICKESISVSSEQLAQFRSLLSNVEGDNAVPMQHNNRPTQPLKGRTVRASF

## COc1ccc(C(=O)NCCc2ccc(S(N)(=O)=O)cc2)cc1 [(4)]
[1]
  pKi: 6.41
[2]
  pKi: 7.70
[3]
  logD: 1.19

## [11CH3]Oc1ccc(S(N)(=O)=O)cc1 [[^11C]-(6), 4-[^11C]methoxybenzene sulfonamide]
[4]; 2 min p.i.
  Percentage of ID, brain: 0.7 ± 0.1 % ID
  Percentage of ID, carcass: 28.4 ± 2.0 % ID
  Percentage of ID, heart: 0.7 ± 0.2 % ID
  Percentage of ID, intestines: 5.2 ± 0.9 % ID
  Percentage of ID, kidneys: 3.7 ± 0.1 % ID
  Percentage of ID, liver: 6.9 ± 0.4 % ID
  Percentage of ID, lungs: 6.3 ± 2.7 % ID
  Percentage of ID, spleen + pancreas: 1.2 ± 0.1 % ID
  Percentage of ID, stomach: 1.5 ± 0.3 % ID
  Percentage of ID, urine: 0.3 ± 0.1 % ID
  SUV, blood: 11.9 ± 1.1
  SUV, brain: 0.7 ± 0.1
  SUV, heart: 1.6 ± 0.4
  SUV, kidneys: 2.4 ± 0.3
  SUV, liver: 1.5 ± 0.1
  SUV, lungs: 6.2 ± 2.1
  SUV, spleen: 1.9 ± 0.8
  Percentage of ID, blood: 83.4 ± 7.7 % ID
[4]; 60 min p.i.
  Percentage of ID, brain: 1.5 ± 0.1 % ID
  Percentage of ID, carcass: 26.1 ± 1.0 % ID
  Percentage of ID, heart: 0.4 ± 0.1 % ID
  Percentage of ID, intestines: 19.3 ± 1.0 % ID
  Percentage of ID, kidneys: 4.1 ± 0.6 % ID
  Percentage of ID, liver: 6.1 ± 0.5 % ID
  Percentage of ID, lungs: 3.1 ± 1.4 % ID
  Percentage of ID, spleen + pancreas: 2.3 ± 0.6 % ID
  Percentage of ID, stomach: 2.4 ± 0.2 % ID
  Percentage of ID, urine: 4.8 ± 0.3 % ID
  SUV, blood: 7.1 ± 0.7
  SUV, brain: 1.1 ± 0.1
  SUV, heart: 0.9 ± 0.1
  SUV, kidneys: 2.4 ± 0.2
  SUV, liver: 1.4 ± 0.2
  SUV, lungs: 3.5 ± 1.1
  SUV, spleen: 2.4 ± 0.4
  Percentage of ID, blood: 49.7 ± 4.8 % ID

## [11CH3]Oc1ccc(C(=O)NCCc2ccc(S(N)(=O)=O)cc2)cc1 [[^11C]-(4), 4-[^11C]methoxybenzoyl aminoethylbenzenesulfonamide]
[4]; 2 min p.i.
  Percentage of ID, brain: 0.2 ± 0.0 % ID
  Percentage of ID, carcass: 17.6 ± 1.5 % ID
  Percentage of ID, heart: 0.5 ± 0.1 % ID
  Percentage of ID, intestines: 3.6 ± 1.3 % ID
  Percentage of ID, kidneys: 8.1 ± 1.3 % ID
  Percentage of ID, liver: 8.4 ± 0.7 % ID
  Percentage of ID, lungs: 4.9 ± 2.5 % ID
  Percentage of ID, spleen + pancreas: 0.6 ± 0.1 % ID
  Percentage of ID, stomach: 0.7 ± 0.1 % ID
  Percentage of ID, urine: 0.4 ± 0.1 % ID
  SUV, blood: 12.9 ± 0.8
  SUV, brain: 0.2 ± 0.0
  SUV, heart: 1.2 ± 0.2
  SUV, kidneys: 4.3 ± 0.7
  SUV, liver: 1.5 ± 0.2
  SUV, lungs: 6.0 ± 1.6
  SUV, spleen: 0.9 ± 0.1
  Percentage of ID, blood: 90.5 ± 5.9 % ID
[4]; 60 min p.i.
  Percentage of ID, brain: 0.3 ± 0.0 % ID
  Percentage of ID, carcass: 21.2 ± 2.8 % ID
  Percentage of ID, heart: 0.5 ± 0.1 % ID
  Percentage of ID, intestines: 12.4 ± 0.8 % ID
  Percentage of ID, kidneys: 4.1 ± 0.3 % ID
  Percentage of ID, liver: 9.2 ± 1.1 % ID
  Percentage of ID, lungs: 4.2 ± 1.1 % ID
  Percentage of ID, spleen + pancreas: 0.8 ± 0.1 % ID
  Percentage of ID, stomach: 2.6 ± 0.3 % ID
  Percentage of ID, urine: 4.4 ± 2.7 % ID
  SUV, blood: 10.4 ± 1.1
  SUV, brain: 0.2 ± 0.0
  SUV, heart: 1.0 ± 0.3
  SUV, kidneys: 2.5 ± 0.2
  SUV, liver: 1.9 ± 0.3
  SUV, lungs: 4.7 ± 0.7
  SUV, spleen: 1.1 ± 0.2
  Percentage of ID, blood: 72.5 ± 7.6 % ID

## NS(=O)(=O)c1ccc(OCC[18F])cc1 [[^18F]-(5), 4-(2-[^18F]fluoroethoxy)benzenesulfonamide]
[4]; 2 min p.i.
  Percentage of ID, brain: 0.3 ± 0.0 % ID
  Percentage of ID, carcass: 18.8 ± 1.6 % ID
  Percentage of ID, heart: 0.6 ± 0.1 % ID
  Percentage of ID, intestines: 2.9 ± 0.4 % ID
  Percentage of ID, kidneys: 4.1 ± 0.8 % ID
  Percentage of ID, liver: 6.0 ± 1.1 % ID
  Percentage of ID, lungs: 7.3 ± 3.9 % ID
  Percentage of ID, spleen + pancreas: 1.1 ± 0.1 % ID
  Percentage of ID, stomach: 0.8 ± 0.2 % ID
  Percentage of ID, urine: 0.3 ± 0.1 % ID
  SUV, blood: 17.3 ± 2.5
  SUV, brain: 0.5 ± 0.1
  SUV, heart: 1.6 ± 0.4
  SUV, kidneys: 3.1 ± 0.6
  SUV, liver: 1.4 ± 0.3
  SUV, lungs: 9.3 ± 2.9
  SUV, spleen: 2.1 ± 0.7
  Percentage of ID, blood: 106.3 ± 5.2 % ID
[4]; 60 min p.i.
  Percentage of ID, brain: 1.0 ± 0.1 % ID
  Percentage of ID, carcass: 22.4 ± 1.5 % ID
  Percentage of ID, heart: 0.6 ± 0.2 % ID
  Percentage of ID, intestines: 9.6 ± 2.8 % ID
  Percentage of ID, kidneys: 3.7 ± 1.1 % ID
  Percentage of ID, liver: 4.0 ± 0.2 % ID
  Percentage of ID, lungs: 1.8 ± 0.6 % ID
  Percentage of ID, spleen + pancreas: 0.9 ± 0.4 % ID
  Percentage of ID, stomach: 4.2 ± 3.1 % ID
  SUV, blood: 11.1 ± 1.2
  SUV, brain: 1.4 ± 0.2
  SUV, heart: 1.7 ± 0.5
  SUV, kidneys: 2.5 ± 0.4
  SUV, liver: 1.0 ± 0.1
  SUV, lungs: 3.8 ± 0.4
  SUV, spleen: 2.2 ± 0.8
  Percentage of ID, blood: 71.0 ± 14.5 % ID
[5]; micro-PET
  Average SUV ratio heart-to-kidney: 2.5
  Average SUV ratio heart-to-liver: 4
  Average SUV ratio heart-to-spleen: 2.3
  Bone uptake (in vivo defluorination): no bone uptake was observed
  Heart region SUV at 60 min relative to the 2-min value: 75%
[5]; micro-PET time activity curves, 37 MBq i.v.
  SUV, heart: 2.5

## NS(=O)(=O)c1ccc(CCNC(=O)c2ccc(OCCF)cc2)cc1 [(3)]
[1]
  pKi: 7.02
[2]
  pKi: 8.10
[3]
  logD: 1.13

## NS(=O)(=O)c1ccc(CCNC(=O)c2ccc(OCC[18F])cc2)cc1 [[^18F]-(3), 4-(2-[^18F]fluoroethoxy)benzoyl aminoethylbenzenesulfonamide]
[4]; 2 min p.i.
  Percentage of ID, brain: 0.2 ± 0.0 % ID
  Percentage of ID, carcass: 18.10 ± 2.32 % ID
  Percentage of ID, heart: 0.8 ± 0.0 % ID
  Percentage of ID, intestines: 5.9 ± 0.8 % ID
  Percentage of ID, kidneys: 10.6 ± 0.8 % ID
  Percentage of ID, liver: 15.8 ± 1.5 % ID
  Percentage of ID, lungs: 2.3 ± 0.5 % ID
  Percentage of ID, spleen + pancreas: 1.3 ± 0.2 % ID
  Percentage of ID, stomach: 0.7 ± 0.1 % ID
  Percentage of ID, urine: 0.2 ± 0.1 % ID
  SUV, blood: 10.1 ± 0.6
  SUV, brain: 0.2 ± 0.0
  SUV, heart: 2.3 ± 1.3
  SUV, kidneys: 5.6 ± 0.6
  SUV, liver: 3.2 ± 0.2
  SUV, lungs: 3.5 ± 1.0
  SUV, spleen: 1.6 ± 0.2
  Percentage of ID, blood: 71.0 ± 4.3 % ID
[4]; 60 min p.i.
  Percentage of ID, brain: 0.2 ± 0.1 % ID
  Percentage of ID, carcass: 31.35 ± 3.67 % ID
  Percentage of ID, heart: 0.2 ± 0.2 % ID
  Percentage of ID, intestines: 18.6 ± 1.0 % ID
  Percentage of ID, kidneys: 2.8 ± 0.1 % ID
  Percentage of ID, liver: 8.3 ± 1.2 % ID
  Percentage of ID, lungs: 0.7 ± 0.3 % ID
  Percentage of ID, spleen + pancreas: 0.9 ± 0.3 % ID
  Percentage of ID, stomach: 1.9 ± 1.3 % ID
  SUV, blood: 4.5 ± 0.3
  SUV, brain: 0.1 ± 0.0
  SUV, heart: 0.5 ± 0.4
  SUV, kidneys: 1.6 ± 0.1
  SUV, liver: 1.7 ± 0.3
  SUV, lungs: 1.1 ± 0.4
  SUV, spleen: 1.1 ± 0.3
  Percentage of ID, blood: 32 % ID and 31.7 ± 2.1 % ID
[2]
  pKi: 8.10

## NS(=O)(=O)c1ccc(OCCF)cc1 [(5)]
[1]
  pKi: 4.51
[2]
  pKi: 6.47
[3]
  logD: 0.32
